What all share (test): NCI anticancer screen, dose series, 48 h
In test [1] the test system is IGROV-1.
The test system of test [2] is UACC-62.
Test [3] deals with BT-549.
Test [4] concerns OVCAR-5.
Test [5] concerns Hs-578T.
Test [6] has as its system SW-620.
In test [7] the test system is SF-268.
The subject of test [8] is HCC 2998.
The subject of test [9] is MDA-MB-231.
Test [10] relates to OVCAR-4.
Test [11] has as its system OVCAR-8.
Test [12] concerns HOP-62.
In test [13] the test system is PC-3.
Test [14] concerns COLO 205.
Test [15] concerns NCI-H226.
The subject of test [16] is DU-145.
Test [17] has as its system HT-29.
Test [18] concerns U-251.
The subject of test [19] is MDA-N.
Test [20] relates to RPMI-8226.

The structures appear in SMILES notation.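 The compound was tested at five concentrations on cells cultured in 96-well plates, with a 48-hour exposure period. Here, GI50 denotes the concentration required for 50% inhibition of growth.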 Active and inactive are the calls of the source. Rule as the data show it: active = GI50 up to about 1.1 µM and inactive = higher.

Take `Fc1ccc(NC(=S)SCc2ccc3c(c2)OCO3)cc1F`: the GI50 in test [1] is 18.6 µM (inactive); in test [2], 14.2 µM (inactive); in test [3], 21.1 µM (inactive); in test [4], 11.1 µM (inactive); in [5], 26.9 µM (inactive); in [6], 33 µM (inactive). Further, the GI50 was 21.2 µM (inactive) in [7]; 21.8 µM (inactive) in [8]; 31.1 µM (inactive) in test [9]; 22.4 µM (inactive) in test [10]; 18.3 µM (inactive) in test [11]; 39.5 µM (inactive) in test [12]. The GI50 in [13] is 25.5 µM (inactive); in [14], 18.9 µM (inactive); in test [15], 37.7 µM (inactive); in test [16], 31.6 µM (inactive); in [17], 20.2 µM (inactive); in test [18] it was 17.4 µM (inactive). In addition, the GI50 in [19] was 17.6 µM (inactive).

`CCC1NC(=O)C1NC(=O)OC` (centres undefined): the GI50 in test [1], in [2], in [3], in test [4], in test [5] and in test [6] was > 100 µM (inactive) each time. The GI50 in [8], in [20], in [9], in [10], in test [11] and in test [12] was > 100 µM (inactive) in each case. For the same compound, the GI50 in test [13], in test [14], in test [15], in [16], in [17] and in test [18] was > 100 µM (inactive) each time. In addition, the GI50 in test [19] was > 100 µM (inactive).

On to `COc1cc2c(cc1O)c(O)cc1c3cc(OC)c(OC)cc3c[n+](C)c21`, for which the GI50 was 4.34 µM (inactive) in test [2]; 23 µM (inactive) in test [3]; > 100 µM (inactive) in test [4]; 4.23 µM (inactive) in test [5]; 28.2 µM (inactive) in test [6]; < 0.01 µM (active) in test [7]. Besides, the GI50 was > 91 µM (inactive) in test [8]; > 32.8 µM (inactive) in test [20]; 35.3 µM (inactive) in test [9]; > 80.5 µM (inactive) in test [10]; 8.87 µM (inactive) in test [11]; 34.1 µM (inactive) in [12]. Further, the GI50 in [13] was > 78.2 µM (inactive); in test [14], > 43.3 µM (inactive); in test [15], 9.62 µM (inactive); in test [16], 7.52 µM (inactive); in test [17] it was 15.2 µM (inactive); in test [18], 0.582 µM (active). In test [19], the GI50 is 17.7 µM (inactive).

For the compound `CC1CC(=O)Nc2cc(Cl)ccc2N1C(=O)C1CC1` (centres undefined), the GI50 in test [1], in [3], in test [4], in [5], in [6] and in test [7] was > 100 µM (inactive) throughout. Besides, the GI50 in test [8], in test [20], in test [9], in test [10], in [11] and in test [12] was > 100 µM (inactive) in each case. Also, the GI50 in [13], in test [14], in test [15], in [16], in [17] and in test [18] was > 100 µM (inactive) in each case. Further, the GI50 in test [19] was > 100 µM (inactive).

For the compound `COc1cc2ccc1OCc1cccc(n1)COc1ccc(cc1OC)/C=N\c1ccc(cc1)/N=C\2`, the GI50 in test [1] was > 100 µM (inactive); in test [2], > 100 µM (inactive); in test [3], > 100 µM (inactive); in test [4] it was > 100 µM (inactive); in [5] it was 54.2 µM (inactive); in [6], > 100 µM (inactive). For the same compound, the GI50 in [7], in test [8], in test [9], in test [10], in [11] and in [12] was > 100 µM (inactive) throughout. The GI50 in test [13], in [14], in test [15], in test [16], in test [17] and in test [18] was > 100 µM (inactive) throughout. In addition, the GI50 in test [19] is > 100 µM (inactive).

As to `CN(Cc1cnc2nc(N)nc(N)c2n1)c1ccc(C(=O)N[C@@H](CCS(=O)(=O)O)C(=O)O)cc1`, the GI50 in test [1] is 0.431 µM (active); in [2], 0.248 µM (active); in [3] it was 0.404 µM (active); in test [5], > 100 µM (inactive); in [6] it was 0.0824 µM (active); in test [7] it was 0.151 µM (active). The GI50 was 0.61 µM (active) in test [8]; > 100 µM (inactive) in test [9]; > 100 µM (inactive) in test [10]; 21.8 µM (inactive) in test [11]; 1.99 µM (inactive) in [12]; 0.0459 µM (active) in test [13]. Moreover, the GI50 in test [14] is > 100 µM (inactive); in test [15], 51.5 µM (inactive); in [16], 0.562 µM (active); in test [18], > 100 µM (inactive); in test [19], 0.057 µM (active).

On to `C/C=C(\C)C(=O)OC1C(C)=C2C(C1OC(=O)CCCC)C(C)(OC(C)=O)CC(OC(=O)CCCC)C1(O)C2OC(=O)C1(C)O` (centres undefined), for which the GI50 in test [1] was 6.85 µM (inactive); in [2], 1.57 µM (inactive); in [3], 8.71 µM (inactive); in [4], 2.21 µM (inactive); in [5], 0.625 µM (active); in test [6] it was 0.501 µM (active). The GI50 in test [8] is 3.24 µM (inactive); in test [20], 0.267 µM (active); in [9] it was 0.625 µM (active); in [10] it was 1.86 µM (inactive); in test [11], 4.43 µM (inactive); in [12], 0.431 µM (active). Also, the GI50 in [13] is 0.491 µM (active); in test [14], 0.891 µM (active); in [15] it was 1.19 µM (inactive); in test [16], 3.71 µM (inactive); in [17], 0.736 µM (active); in test [18] it was 0.605 µM (active). Moreover, the GI50 in test [19] was 0.437 µM (active).

On to `COc1ccc(C(=O)c2cc(OC)c(OC)c(OC)c2)cc1OC`, for which the GI50 in [1] was 9.68 µM (inactive); in test [2], 4.57 µM (inactive); in [3], 5.41 µM (inactive); in [4], 14.6 µM (inactive); in test [5], 2.7 µM (inactive); in [6], 3.52 µM (inactive). For the same compound, the GI50 is 7.8 µM (inactive) in test [7]; 2.81 µM (inactive) in [8]; 7.53 µM (inactive) in [20]; 6.17 µM (inactive) in [9]; 5.38 µM (inactive) in test [11]; 4.57 µM (inactive) in test [12]. The GI50 in test [13] is 3.86 µM (inactive); in test [14], 4.04 µM (inactive); in test [16], 3.92 µM (inactive); in test [17], 3.1 µM (inactive); in test [18], 3.94 µM (inactive); in [19], 0.618 µM (active).
